According to ChEMBL document CHEMBL1201862, “PubChem BioAssay data set” (2004):
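Cultured in 96-well plates, cells were exposed to test compound for 48 hours across five concentrations. At the GI50, growth is halved.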 Calls of active or inactive are those of the source. No stated cut-off is given here; in the data, active = GI50 up to about 1.1 µM and inactive = higher.

Legend:
Test in all cases: growth of human tumour cells (NCI), 48 h
A498 = test system: A498
A549 = test system: A549
CAKI-1 = test system: CAKI-1
CCRF-CEM = test system: CCRF-CEM
COLO 205 = test system: COLO 205
DLD-1 = test system: DLD-1
DMS-273 = test system: DMS-273
EKVX = test system: EKVX
HCC 2998 = test system: HCC 2998
HCT-116 = test system: HCT-116
HCT-15 = test system: HCT-15
HL-60 = test system: HL-60
HOP-18 = test system: HOP-18
HOP-62 = test system: HOP-62
HOP-92 = test system: HOP-92
HT-29 = test system: HT-29
IGROV-1 = test system: IGROV-1
K562 = test system: K562
KM-20L2 = test system: KM-20L2
KM12 = test system: KM12
LOX IMVI = test system: LOX IMVI
M19-MEL = test system: M19-MEL
MCF7 = test system: MCF7
MOLT-4 = test system: MOLT-4
Malme-3M = test system: Malme-3M
NCI-H226 = test system: NCI-H226
NCI-H23 = test system: NCI-H23
NCI-H460 = test system: NCI-H460
NCI-H522 = test system: NCI-H522
NCI/ADR-RES = test system: NCI/ADR-RES
OVCAR-3 = test system: OVCAR-3
OVCAR-4 = test system: OVCAR-4
OVCAR-5 = test system: OVCAR-5
OVCAR-8 = test system: OVCAR-8
RPMI-8226 = test system: RPMI-8226
RXF 393 = test system: RXF 393
SF-268 = test system: SF-268
SF-295 = test system: SF-295
SF-539 = test system: SF-539
SK-MEL-28 = test system: SK-MEL-28
SK-MEL-2 = test system: SK-MEL-2
SK-MEL-5 = test system: SK-MEL-5
SK-OV-3 = test system: SK-OV-3
SN12C = test system: SN12C
SNB-19 = test system: SNB-19
SNB-75 = test system: SNB-75
SNB-78 = test system: SNB-78
SW-620 = test system: SW-620
U-251 = test system: U-251
UACC-257 = test system: UACC-257
UACC-62 = test system: UACC-62
UO-31 = test system: UO-31
XF498 = test system: XF498
DMS-114 = test system: DMS-114
786-0 = test system: 786-0
ACHN = test system: ACHN
LXFL 529 = test system: LXFL 529
M14 = test system: M14
SR = test system: SR
DU-145 = test system: DU-145
Hs-578T = test system: Hs-578T
MDA-MB-435 = test system: MDA-MB-435
T47D = test system: T47D

CCn1c(=O)c(C(=O)O)c(Cl)c2cc3c(cc21)OCO3
GI50 (A498): > 100 µM (inactive)
GI50 (A549): > 100 µM (inactive)
GI50 (CAKI-1): > 100 µM (inactive)
GI50 (CCRF-CEM): > 100 µM (inactive)
GI50 (COLO 205): > 100 µM (inactive)
GI50 (DLD-1): > 100 µM (inactive)
GI50 (DMS-273): > 100 µM (inactive)
GI50 (EKVX): > 100 µM (inactive)
GI50 (HCC 2998): > 100 µM (inactive)
GI50 (HCT-116): > 100 µM (inactive)
GI50 (HCT-15): > 100 µM
GI50 (HL-60): > 100 µM (inactive)
GI50 (HOP-18): > 100 µM (inactive)
GI50 (HOP-62): > 100 µM (inactive)
GI50 (HOP-92): > 100 µM (inactive)
GI50 (HT-29): > 100 µM (inactive)
GI50 (IGROV-1): > 100 µM (inactive)
GI50 (K562): > 100 µM (inactive)
GI50 (KM-20L2): > 100 µM (inactive)
GI50 (KM12): > 100 µM (inactive)
GI50 (LOX IMVI): > 100 µM (inactive)
GI50 (M19-MEL): > 100 µM (inactive)
GI50 (MCF7): > 100 µM (inactive)
GI50 (MOLT-4): > 100 µM (inactive)
GI50 (Malme-3M): > 100 µM (inactive)
GI50 (NCI-H226): > 100 µM (inactive)
GI50 (NCI-H23): > 100 µM (inactive)
GI50 (NCI-H460): > 100 µM (inactive)
GI50 (NCI-H522): > 100 µM (inactive)
GI50 (NCI/ADR-RES): > 100 µM (inactive)
GI50 (OVCAR-3): > 100 µM (inactive)
GI50 (OVCAR-4): > 100 µM (inactive)
GI50 (OVCAR-5): > 100 µM (inactive)
GI50 (OVCAR-8): > 100 µM (inactive)
GI50 (RPMI-8226): > 100 µM (inactive)
GI50 (RXF 393): > 100 µM (inactive)
GI50 (SF-268): > 100 µM (inactive)
GI50 (SF-295): > 100 µM (inactive)
GI50 (SF-539): > 100 µM (inactive)
GI50 (SK-MEL-28): > 100 µM (inactive)
GI50 (SK-MEL-2): > 100 µM (inactive)
GI50 (SK-MEL-5): > 100 µM (inactive)
GI50 (SK-OV-3): > 100 µM (inactive)
GI50 (SN12C): > 100 µM (inactive)
GI50 (SNB-19): > 100 µM (inactive)
GI50 (SNB-75): > 100 µM (inactive)
GI50 (SNB-78): > 100 µM (inactive)
GI50 (SW-620): > 100 µM (inactive)
GI50 (U-251): > 100 µM (inactive)
GI50 (UACC-257): > 100 µM (inactive)
GI50 (UACC-62): > 100 µM (inactive)
GI50 (UO-31): > 100 µM (inactive)
GI50 (XF498): > 100 µM (inactive)

O=C(O)C(Cc1cccs1)NC(=O)C(F)(F)F (stereo not given)
GI50 (A498): > 100 µM (inactive)
GI50 (A549): > 100 µM (inactive)
GI50 (CAKI-1): > 100 µM (inactive)
GI50 (CCRF-CEM): > 100 µM (inactive)
GI50 (COLO 205): > 100 µM (inactive)
GI50 (DLD-1): > 100 µM (inactive)
GI50 (DMS-114): > 100 µM (inactive)
GI50 (DMS-273): > 100 µM (inactive)
GI50 (EKVX): > 100 µM (inactive)
GI50 (HCC 2998): > 100 µM (inactive)
GI50 (HCT-116): > 100 µM (inactive)
GI50 (HCT-15): > 100 µM
GI50 (HL-60): > 100 µM (inactive)
GI50 (HOP-18): > 100 µM (inactive)
GI50 (HOP-62): > 100 µM (inactive)
GI50 (HOP-92): > 100 µM (inactive)
GI50 (HT-29): > 100 µM (inactive)
GI50 (IGROV-1): > 100 µM (inactive)
GI50 (K562): > 100 µM (inactive)
GI50 (KM-20L2): > 100 µM (inactive)
GI50 (KM12): > 100 µM (inactive)
GI50 (LOX IMVI): > 100 µM (inactive)
GI50 (M19-MEL): > 100 µM (inactive)
GI50 (MCF7): > 100 µM (inactive)
GI50 (MOLT-4): > 100 µM (inactive)
GI50 (Malme-3M): > 100 µM (inactive)
GI50 (NCI-H226): > 100 µM (inactive)
GI50 (NCI-H23): > 100 µM (inactive)
GI50 (NCI-H460): > 100 µM (inactive)
GI50 (NCI-H522): > 100 µM (inactive)
GI50 (NCI/ADR-RES): > 100 µM (inactive)
GI50 (OVCAR-3): > 100 µM (inactive)
GI50 (OVCAR-4): > 100 µM (inactive)
GI50 (OVCAR-5): > 100 µM (inactive)
GI50 (OVCAR-8): > 100 µM (inactive)
GI50 (RPMI-8226): > 100 µM (inactive)
GI50 (RXF 393): > 100 µM (inactive)
GI50 (SF-268): > 100 µM (inactive)
GI50 (SF-295): > 100 µM (inactive)
GI50 (SF-539): > 100 µM (inactive)
GI50 (SK-MEL-28): > 100 µM (inactive)
GI50 (SK-MEL-2): > 100 µM (inactive)
GI50 (SK-MEL-5): > 100 µM (inactive)
GI50 (SK-OV-3): > 100 µM (inactive)
GI50 (SN12C): > 100 µM (inactive)
GI50 (SNB-19): > 100 µM (inactive)
GI50 (SNB-75): > 100 µM (inactive)
GI50 (SW-620): > 100 µM (inactive)
GI50 (U-251): > 100 µM (inactive)
GI50 (UACC-257): > 100 µM (inactive)
GI50 (UACC-62): > 100 µM (inactive)
GI50 (UO-31): > 100 µM (inactive)

O=C1C(CN2CCCCC2)CCCC1CN1CCCCC1 (stereo not given)
GI50 (786-0): 7.29 µM (inactive)
GI50 (A498): > 100 µM (inactive)
GI50 (A549): > 100 µM (inactive)
GI50 (ACHN): 19.6 µM (inactive)
GI50 (DLD-1): 15.9 µM (inactive)
GI50 (DMS-273): 29.6 µM (inactive)
GI50 (EKVX): 19.9 µM (inactive)
GI50 (HCC 2998): > 100 µM (inactive)
GI50 (HCT-116): 14.5 µM (inactive)
GI50 (HCT-15): 14.2 µM
GI50 (HOP-18): 14.7 µM (inactive)
GI50 (HOP-62): > 100 µM (inactive)
GI50 (HT-29): 18.8 µM (inactive)
GI50 (KM-20L2): 13.3 µM (inactive)
GI50 (KM12): > 60.3 µM (inactive)
GI50 (LOX IMVI): 25.5 µM (inactive)
GI50 (LXFL 529): 15.6 µM (inactive)
GI50 (M14): 32.3 µM (inactive)
GI50 (Malme-3M): 5.82 µM (inactive)
GI50 (NCI-H226): > 100 µM (inactive)
GI50 (NCI-H23): > 45.1 µM (inactive)
GI50 (OVCAR-3): 17.1 µM (inactive)
GI50 (OVCAR-4): > 10 µM (inactive)
GI50 (OVCAR-5): > 59 µM (inactive)
GI50 (OVCAR-8): 14.9 µM (inactive)
GI50 (SF-295): > 100 µM (inactive)
GI50 (SF-539): > 43.2 µM (inactive)
GI50 (SK-MEL-28): 13.7 µM (inactive)
GI50 (SK-MEL-5): > 31.6 µM (inactive)
GI50 (SN12C): 26.2 µM (inactive)
GI50 (SNB-19): > 100 µM (inactive)
GI50 (SNB-78): 22.8 µM (inactive)
GI50 (SR): 8.93 µM (inactive)
GI50 (SW-620): 9.89 µM (inactive)
GI50 (UACC-257): 24.9 µM (inactive)
GI50 (UACC-62): > 40.6 µM (inactive)
GI50 (UO-31): > 42.2 µM (inactive)
GI50 (XF498): 18.4 µM (inactive)

O=C1C(Cl)=C(N2CCN(CCOCCO)CC2)C(=O)c2c(O)ccc(O)c21
GI50 (A549): 2.71 µM (inactive)
GI50 (DLD-1): 0.195 µM (active)
GI50 (DMS-273): 1.05 µM (active)
GI50 (DU-145): 1.85 µM (inactive)
GI50 (HCC 2998): 1.93 µM (inactive)
GI50 (HCT-15): 0.292 µM
GI50 (HOP-18): 1.38 µM (inactive)
GI50 (HOP-92): 0.231 µM (active)
GI50 (Hs-578T): 2.64 µM (inactive)
GI50 (KM-20L2): 0.716 µM (active)
GI50 (LXFL 529): 0.224 µM (active)
GI50 (MDA-MB-435): 295 nM (active)
GI50 (NCI-H226): 1.99 µM (inactive)
GI50 (NCI-H460): 3.1 µM (inactive)
GI50 (NCI-H522): 0.174 µM (active)
GI50 (OVCAR-5): 1.79 µM (inactive)
GI50 (SF-539): 1.3 µM (inactive)
GI50 (SK-MEL-2): 0.404 µM (active)
GI50 (SNB-75): 1.41 µM (inactive)
GI50 (SNB-78): 0.363 µM (active)
GI50 (T47D): 438 nM (active)
GI50 (XF498): 0.557 µM (active)
